Measured values as given in ChEMBL document CHEMBL1144802, “Cytotoxic xanthones from Psorospermum molluscum from the Madagascar rain forest” (J Nat Prod, 2008).

How the values were obtained:
A2780 = experiment: Cytotoxicity against human A2780 cells; assay type: functional, cell-based
HCT-116 = experiment: Cytotoxicity against human HCT116 cells; assay type: functional, cell-based
ABAE = experiment: Cytotoxicity against bovine ABAE cells; assay type: functional, cell-based, Bos taurus
SK-BR-3 = experiment: Cytotoxicity against human SKBR3 cells; assay type: functional, cell-based

Row | SMILES | IC50 (A2780) [nM] | IC50 (HCT-116) [nM] | IC50 (ABAE) [nM] | IC50 (SK-BR-3) [nM]
1 | O=c1c2c(O)cccc2oc2ccc3c(c12)CC(C(O)(CO)CCl)O3 (configuration not stated) [PSOROXANTHIN CHLOROHYDRIN] | 42 | 68 | 4 | 2000
2 | O=c1c2c(O)cccc2oc2ccc3c(c12)CC(C1(CO)CO1)O3 (configuration not stated) [PSOROXANTHIN] | 330 | 1000 | 102 | –
